How the values were obtained:
Assay in all cases: Anti-proliferative activity, cell-titre luminescent viability assay
Assay type in all cases: cell-based
[1] = system: A549 lung (NSLC) cancer cells; conditions: Homo sapiens, 72 hours exposure
Procedure: (§1) The ability of compounds 1001-1018 and 1037-1039 to inhibit the proliferation of cancer cells representative of neuroblastoma, melanoma, prostate cancer, colorectal cancer, non-small cell lung carcinoma, and triple negative breast cancer was assessed (Table 1).
(§2) Briefly, a pre-determined number of cells as calculated from cell growth assays for each of the cell lines employed were seeded into their respective culture medium (using ATCC culture parameters—http://www.atcc.org) and cultured for 24 hours at 37° C. and 5% CO2 in 96-well culture plates. Once attached, each cell line was then exposed to increasing concentrations of each respective analogue (0.03, 0.3, 3 and 30 μM for compounds 1001-13 and 1015-18; 0.1, 0.3, 1, 3, 10 and 30 μM for compounds 1014 and 1037-39), cultured for a further 72 hours and exposed to cell-titre luminescent reagent (100 μL/well) for a further 30 minutes) to measure cell viability. Luminescence was captured using an EnVision multilabel reader and the data for each analogue concentration compared against no treatment control. For compounds 1001-13 and 1015-18, semi-log plots of Percent of Control versus concentration were prepared and IC50 determined using linear regression analysis. For compounds 1014 and 1037-39, cell viability was normalized to control (vehicle alone) and dose-response curves, and half maximal effective concentration (EC50) values were determined using Graph Pad Prism 6 (nonlinear regression sigmoidal dose-response variable slope).

[2] = system: CaCo2 colorectal cancer cells; conditions: Homo sapiens, Caco-2, 72 hours exposure
Procedure: as §1, §2

[3] = system: DU145 prostate cancer cells; conditions: Homo sapiens, DU-145, 72 hours exposure
Procedure: as §1, §2

[4] = system: MDA-MB-231 breast cancer cells; conditions: Homo sapiens, 72 hours exposure
Procedure: as §1, §2

[5] = system: PC3 prostate cancer cells; conditions: 72 hours exposure
Procedure: as §1, §2

SK-Mel-28 melanoma cells = conditions: Homo sapiens, 72 hours exposure
Procedure: as §1, §2

[6] = system: SK-N-SH neuroblastoma cells; conditions: Homo sapiens, 72 hours exposure
Procedure: as §1, §2

SMILES	IC50 [1] [µM]	IC50 [2] [µM]	IC50 [3] [µM]	IC50 [4] [µM]	IC50 [5] [µM]	IC50 (SK-Mel-28 melanoma cells) [µM]	IC50 [6] [µM]
CCN(CC)CCCn1c2ccccc2c2cc(C(=O)N3CCN(CCc4ccc5c(c4)OCO5)CC3)ccc21 [Compound 1009, (4-(2-(benzo[d][1,3]dioxol-5-yl)ethyl)piperazin-1-yl)(9-(3-(diethylamino)propyl)-9H-carbazol-3-yl)methanone]	4	5	12.1	4.5	4.6	4.1	4.8
O=C(c1ccc2c(c1)c1ccccc1n2CCc1ccc(F)cc1)N1CCN(CCc2ccc(F)cc2)CC1 [Compound 1039, (9-(4-fluorophenethyl)-9H-carbazol-3-yl)(4-(4-fluorophenethyl)piperazin-1-yl)methanone]	> 30	> 30	> 30	> 30	> 30	> 30	> 30
O=C(c1ccc2[nH]c3ccccc3c2c1)N1CCN(CCc2ccc(F)cc2)CC1 [Compound 1037, (9H-carbazol-3-yl)(4-(4-fluorophenethyl)piperazin-1-yl)methanone]	16.3	> 30	> 30	> 30	> 30	> 30	> 30
O=C(c1ccc2c(c1)c1ccccc1n2CCCCl)N1CCN(CCc2ccc(F)cc2)CC1 [Compound 1038, (9-(3-chloropropyl)-9H-carbazol-3-yl)(4-(4-fluorophenethyl)piperazin-1-yl)methanone]	> 30	> 30	> 30	> 30	> 30	> 30	> 30
CCN(CC)CCCn1c2ccccc2c2cc(C(=O)N3CCN(CCc4ccc(OC)cc4)CC3)ccc21 [Compound 1008, (9-(3-(diethylamino)propyl)-9H-carbazol-3-yl)(4-(4-methoxyphenethyl)piperazin-1-yl)methanone]	3.8	6.7	4	3.5	4.8	2.5	3.3
CCN(CC)CCCn1c2ccccc2c2cc(C(=O)N3CCN(CCc4ccccc4)CC3)ccc21 [Compound 1012, (9-(3-(diethylamino)propyl)-9H-carbazol-3-yl)(4-phenethylpiperazin-1-yl)methanone]	3.2	2.8	3.5	3.1	4.1	2.8	2.9
CN(C)CCCn1c2ccccc2c2cc(C(=O)N3CCN(CCc4ccc(F)cc4)CC3)ccc21 [Compound 1002, (9-(3-(dimethylamino)propyl)-9H-carbazol-3-yl)(4-(4-fluorophenethyl)piperazin-1-yl)methanone]	3.4	3.7	3.7	4.5	6.1	3.7	3.4

Next, values leading:

IC50 [1] [µM]	IC50 [2] [µM]	IC50 [3] [µM]	IC50 [4] [µM]	IC50 [5] [µM]	IC50 (SK-Mel-28 melanoma cells) [µM]	IC50 [6] [µM]	SMILES
3.6	4.1	3.7	4.2	3.7	3.9	3.3	CCN(CC)CCCn1c2ccccc2c2cc(C(=O)N3CCN(CCc4cccc(F)c4)CC3)ccc21 [Compound 1010, (9-(3-(diethylamino)propyl)-9H-carbazol-3-yl)(4-(3-fluorophenethyl)piperazin-1-yl)methanone]
4	5.5	15.5	4.4	5.3	3.4	5.1	CN1CCN(CCCn2c3ccccc3c3cc(C(=O)N4CCN(CCc5ccc6c(c5)OCO6)CC4)ccc32)CC1 [Compound 1015, (4-(2-(benzo[d][1,3]dioxol-5-yl)ethyl)piperazin-1-yl)(9-(3-(4-methylpiperazin-1-yl)propyl)-9H-carbazol-3-yl)methanone]
31.1	13.8	40.2	10.2	3.8	5.1	8.8	COc1ccc(CCN2CCN(C(=O)c3ccc4c(c3)c3ccccc3n4CCCN3CCN(C)CC3)CC2)cc1 [Compound 1014, (4-(4-methoxyphenethyl)piperazin-1-yl)(9-(3-(4-methylpiperazin-1-yl)propyl)-9H-carbazol-3-yl)methanone]
3.4	3.7	3.6	4.3	3.1	3.2	3.1	COc1ccc(CCN2CCN(C(=O)c3ccc4c(c3)c3ccccc3n4CCCN(C)C)CC2)cc1 [Compound 1003, (9-(3-(dimethylamino)propyl)-9H-carbazol-3-yl)(4-(4-methoxyphenethyl)piperazin-1-yl)methanone]
3.6	4.6	6.6	3.7	5.2	4	4.7	COc1cccc(CCN2CCN(C(=O)c3ccc4c(c3)c3ccccc3n4CCCN3CCN(C)CC3)CC2)c1 [Compound 1017, (4-(3-methoxyphenethyl)piperazin-1-yl)(9-(3-(4-methylpiperazin-1-yl)propyl)-9H-carbazol-3-yl)methanone]
3.5	3.8	3.2	4.1	3.3	3.5	3.3	CN(C)CCCn1c2ccccc2c2cc(C(=O)N3CCN(CCc4cccc(F)c4)CC3)ccc21 [Compound 1005, (9-(3-(dimethylamino)propyl)-9H-carbazol-3-yl)(4-(3-fluorophenethyl)piperazin-1-yl)methanone]
3.8	4	4.5	2.5	5.5	3.4	4.2	CCN(CC)CCCn1c2ccccc2c2cc(C(=O)N3CCN(CCc4cccc(OC)c4)CC3)ccc21 [Compound 1011, (9-(3-(diethylamino)propyl)-9H-carbazol-3-yl)(4-(3-methoxyphenethyl)piperazin-1-yl)methanone]
3.5	4.1	4.4	3	5.2	3.5	3.4	COc1cccc(CCN2CCN(C(=O)c3ccc4c(c3)c3ccccc3n4CCCN(C)C)CC2)c1 [Compound 1006, (9-(3-(dimethylamino)propyl)-9H-carbazol-3-yl)(4-(3-methoxyphenethyl)piperazin-1-yl)methanone]

— patent publication US20170158636A1, “FUNCTIONALISED AND SUBSTITUTED CARBAZOLES AS ANTI-CANCER AGENTS” (Novogen Ltd., priority 2014, published 2017)
